{"source": "patent US20240166622A1", "about": "“FLUORINATED QUINOLINE, QUINOXALINE AND BENZO[B][1,4]OXAZINE DERIVATIVES AS DIHYDROOROTATE DEHYDROGENASE (DHODH) INHIBITORS FOR THE TREATMENT OF CANCER, AUTOIMMUNE AND INFLAMMATORY DISEASES” (Janssen Biotech, Inc., priority 2019, published 2024)", "key": {"MOLM-13 cells": {"test_system": "MOLM-13 cells", "test": "MOLM-13 Cellular Assay", "format": "cell-based", "settings": "Homo sapiens, 72 hours, cell viability by CellTiter-Glo", "method": "MOLM-13 cells were obtained from DSMZ and were maintained in RPMI 1640+Glutamax+25 mM HEPES (Invitrogen, catalog number 72400) supplemented with 10% heat inactivated fetal bovine serum (FBS; Invitrogen, catalog number 16140). The day prior to assay set-up, cells were pelleted, resuspended in fresh media, counted, and cells were plated at 0.4×10^6 cell/mL in a T150 flask. On the day of the assay, cells were pelleted, resuspend in fresh media, counted, and seeded at 5,000 cells/well in white opaque 96-well tissue culture treated microplates (Perkin Elmer, catalog number 6005680). Cells were exposed to different concentrations of test compounds at 37° C., 5% CO2 for 72 hours immediately after seeding. Cell viability was acquired on a Perkin Elmer Envision 2104 multilabel reader using the CellTiter-Glo assay (Promega) according to the manufacturer's instructions."}, "human DHODH": {"target": "human DHODH (Homo sapiens (Human), UniProt Q02127)", "sequence (Q02127 whole entry)": "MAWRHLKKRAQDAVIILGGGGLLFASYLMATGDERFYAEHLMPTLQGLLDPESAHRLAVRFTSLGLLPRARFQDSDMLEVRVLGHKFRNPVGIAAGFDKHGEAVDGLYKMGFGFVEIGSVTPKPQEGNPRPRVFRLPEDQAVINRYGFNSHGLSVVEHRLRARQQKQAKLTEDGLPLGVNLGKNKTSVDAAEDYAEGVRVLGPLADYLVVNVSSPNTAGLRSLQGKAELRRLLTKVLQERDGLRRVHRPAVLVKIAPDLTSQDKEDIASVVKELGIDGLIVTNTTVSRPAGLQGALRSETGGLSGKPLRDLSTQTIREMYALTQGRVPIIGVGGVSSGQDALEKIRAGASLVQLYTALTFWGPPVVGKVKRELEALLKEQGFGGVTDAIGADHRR", "test": "DHODH Enzymatic Assay", "format": "biochemical", "settings": "purified human DHODH, DCIP absorbance, end-point mode", "method": "To detect DHODH enzyme activities, dichloroindophenol (DCIP) is added as the final electron acceptor in the assay. DCIP can accept electrons from the reduced coenzyme Q generated in the assay, or from dihydroorotate (DHO) via FMN by binding presumably to the ubiquinone pocket. […] The assay buffer contained […], pH 7.5, 150 mM NaCl, 0.5 mM EDTA, and 0.1% Triton X-100 in MilliQ water. Substrate consisting of 20 mM DHO, 5 mM CoQ6, and 1 mM DCIP in assay buffer, initiates the reaction. […] Absorbance measurements were obtained using the BMG Phera Star plate-reading spectrophotomer. Purified human DHODH was purchased from Proteros (cat. No. PR-0044). Chemicals were purchased from Sigma-Aldrich, Teknova, and Avanti Polar Lipids. Liquid handling was performed using Labcyte Echo and Formulatrix Tempest."}}}
{"smiles": "CCn1c(CO)nn(-c2cc3c(cc2F)N(C(C)=O)C(c2ccccc2C)CC3C(C)C)c1=O", "note": "(centres unmarked) [Example 24, 1-(1-Acetyl-7-fluoro-4-isopropyl-2-(o-tolyl)-1,2,3,4-tetrahydroquinolin-6-yl)-4-ethyl-3-(hydroxymethyl)-1H-1,2,4-triazol-5(4H)-one]", "values": [{"measurement": "IC50", "setting": "MOLM-13 cells", "result": "> 0.1", "unit": "µM"}, {"measurement": "IC50", "setting": "human DHODH", "result": 5.53, "unit": "µM"}]}
